Literature values in patent US11279710B2, “Processes for preparing ACC inhibitors and solid forms thereof” (Gilead Sciences, Inc., priority 2017, dated 2022).

Tests used:
ACC1 = ACC1 isolated from rat, mouse, monkey and human
[1] = target: T1, propionyl-CoA carboxylase (Homo sapiens, UniProt P05165+P05166)
T1 sequence (P05165 53-728): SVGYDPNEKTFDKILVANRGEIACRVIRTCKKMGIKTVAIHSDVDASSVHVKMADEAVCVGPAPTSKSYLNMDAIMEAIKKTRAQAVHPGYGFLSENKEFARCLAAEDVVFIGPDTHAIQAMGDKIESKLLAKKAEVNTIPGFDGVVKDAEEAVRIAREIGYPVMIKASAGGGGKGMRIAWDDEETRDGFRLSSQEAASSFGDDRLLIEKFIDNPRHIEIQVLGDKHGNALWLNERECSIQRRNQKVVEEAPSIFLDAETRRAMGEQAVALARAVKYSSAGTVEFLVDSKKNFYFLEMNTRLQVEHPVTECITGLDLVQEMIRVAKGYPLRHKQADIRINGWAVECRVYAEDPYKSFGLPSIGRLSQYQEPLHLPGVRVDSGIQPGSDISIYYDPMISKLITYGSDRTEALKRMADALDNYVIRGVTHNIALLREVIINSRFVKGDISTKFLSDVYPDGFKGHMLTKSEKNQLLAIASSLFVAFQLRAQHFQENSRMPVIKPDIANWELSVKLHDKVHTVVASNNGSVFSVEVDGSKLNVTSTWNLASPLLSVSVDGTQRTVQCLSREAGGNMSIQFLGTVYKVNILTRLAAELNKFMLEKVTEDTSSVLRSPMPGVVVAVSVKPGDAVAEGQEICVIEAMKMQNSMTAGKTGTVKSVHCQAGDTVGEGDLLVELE
T1 sequence (P05166 29-539): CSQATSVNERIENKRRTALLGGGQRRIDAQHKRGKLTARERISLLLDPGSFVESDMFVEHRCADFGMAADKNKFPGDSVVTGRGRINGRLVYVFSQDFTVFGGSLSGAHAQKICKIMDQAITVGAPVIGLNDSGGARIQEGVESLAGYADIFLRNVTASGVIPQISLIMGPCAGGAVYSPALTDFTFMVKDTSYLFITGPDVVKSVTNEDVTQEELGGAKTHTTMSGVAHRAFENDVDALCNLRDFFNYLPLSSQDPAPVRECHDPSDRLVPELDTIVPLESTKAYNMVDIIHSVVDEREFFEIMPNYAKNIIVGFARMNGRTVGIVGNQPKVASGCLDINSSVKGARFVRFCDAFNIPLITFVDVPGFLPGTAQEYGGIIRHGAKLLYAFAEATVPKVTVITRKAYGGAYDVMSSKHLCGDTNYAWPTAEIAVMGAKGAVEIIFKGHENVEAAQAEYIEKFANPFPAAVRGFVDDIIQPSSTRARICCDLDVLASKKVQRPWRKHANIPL

ACC2 = ACC2 isolated from rat, mouse, monkey and human
[2] = rats, acute (46 min) treatment
[3] = sucrose-fed rats, three weeks
pyruvate carboxylase = target: T2, pyruvate carboxylase (Homo sapiens, UniProt P11498)
T2 sequence (P11498 21-1178): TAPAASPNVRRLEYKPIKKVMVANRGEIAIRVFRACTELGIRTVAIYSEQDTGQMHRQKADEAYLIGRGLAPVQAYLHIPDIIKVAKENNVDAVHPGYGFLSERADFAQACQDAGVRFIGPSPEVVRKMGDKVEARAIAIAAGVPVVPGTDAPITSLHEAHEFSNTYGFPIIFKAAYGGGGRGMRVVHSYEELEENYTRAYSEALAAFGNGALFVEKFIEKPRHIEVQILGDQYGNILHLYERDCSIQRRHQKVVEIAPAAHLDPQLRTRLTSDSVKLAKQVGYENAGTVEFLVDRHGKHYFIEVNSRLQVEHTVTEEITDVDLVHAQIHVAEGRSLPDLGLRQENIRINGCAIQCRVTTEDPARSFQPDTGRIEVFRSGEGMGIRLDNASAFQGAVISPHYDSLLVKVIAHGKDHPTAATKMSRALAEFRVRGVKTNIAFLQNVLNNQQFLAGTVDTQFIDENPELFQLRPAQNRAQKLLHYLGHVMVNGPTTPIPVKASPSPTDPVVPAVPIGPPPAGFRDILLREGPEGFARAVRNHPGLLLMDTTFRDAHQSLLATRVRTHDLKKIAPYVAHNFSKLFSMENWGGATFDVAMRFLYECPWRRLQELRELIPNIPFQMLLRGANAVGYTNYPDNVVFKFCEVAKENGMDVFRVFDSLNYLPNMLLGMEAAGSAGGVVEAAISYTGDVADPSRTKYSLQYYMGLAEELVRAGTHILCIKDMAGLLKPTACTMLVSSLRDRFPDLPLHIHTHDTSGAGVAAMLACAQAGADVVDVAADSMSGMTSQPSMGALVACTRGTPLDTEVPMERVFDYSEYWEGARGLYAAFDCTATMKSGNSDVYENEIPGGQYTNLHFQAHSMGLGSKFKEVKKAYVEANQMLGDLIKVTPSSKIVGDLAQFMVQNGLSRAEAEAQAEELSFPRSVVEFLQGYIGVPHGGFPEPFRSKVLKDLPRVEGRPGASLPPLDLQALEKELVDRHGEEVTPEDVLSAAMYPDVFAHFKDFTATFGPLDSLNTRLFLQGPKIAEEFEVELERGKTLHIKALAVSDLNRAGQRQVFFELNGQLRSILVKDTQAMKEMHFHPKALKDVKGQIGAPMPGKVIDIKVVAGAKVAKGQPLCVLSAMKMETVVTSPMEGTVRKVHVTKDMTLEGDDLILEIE

[4] = tested on: insulin-resistant rat muscle tissue; conditions: within 30 min of compound administration

O=C(c1c2ccccc2cc2ccccc12)N1CCC(N2CCC[C@@H](C(=O)N3CCOCC3)C2)CC1 [CP-640186]
IC50 (ACC1): ~60 nM
FA oxidation (rat muscle slices): stimulated
inhibition of propionyl-CoA carboxylase [1]: without inhibiting
IC50 (ACC2): ~60 nM
FA clearance [2]: stimulated
glucose clearance [2]: without decreasing
hyperinsulinemia produced by the high sucrose diet [3]: reduced
insulin sensitivity [3]: improved
lean body mass [3]: without reducing
leptin levels [3]: reduced
liver, muscle and adipose triglycerides [3]: time- and dose-dependently reduced
plasma glucose levels [3]: without changing
body weight ([3]; due to selective fat reduction): reduced
FA oxidation (C2C12 cells): stimulated
CPT-I activity (Hep-G2 cells): increased
FA synthesis (Hep-G2 cells): reduced
apoA1 secretion (Hep-G2 cells): without affecting
apoB secretion (Hep-G2 cells): reduced
cholesterol synthesis (Hep-G2 cells): without affecting
triglyceride synthesis and secretion (Hep-G2 cells): reduced
inhibition of pyruvate carboxylase (pyruvate carboxylase): without inhibiting
liver and adipose tissue FA synthesis (experimental animals): reduced
whole body FA oxidation (experimental animals): increased
malonyl-CoA concentration (lipogenic and oxidative tissues, fed and fasted state): acutely reduced
insulin sensitivity [4]: stimulation

COc1ccccc1[C@H](Cn1c(=O)n(C(C)(C)C(=O)O)c(=O)c2c(C)c(-c3ncco3)sc21)OC1CCOCC1 [Compound I, (R)-2-(1-(2-(2-methoxyphenyl)-2-((tetrahydro-2H-pyran-4-yl)oxy)ethyl)-5-methyl-6-(oxazol-2-yl)-2,4-dioxo-1,2-dihydrothieno[2,3-d]pyrimidin-3(4H)-yl)-2-methylpropanoic acid]
ACC inhibitory activity (ACC): exhibits ACC inhibitory activity

CO[C@H]1CCCC[C@@H](c2ccccc2)OC(=O)[C@@H](C)[C@@]2(O)O[C@H]([C@@H](C)[C@H](O)[C@H]2OC)[C@@H](C)/C=C/[C@H]1OC [soraphen A]
lipogenesis (human liposarcoma): inhibited
tumor cell growth (human liposarcoma): inhibited
